# In patent publication US20210283211A1, “COMPOSITIONS AND METHODS OF ALLEVIATING RESISTANCE TO CHEMOTHERAPY” (CITY OF HOPE, priority 2019, published 2021):
# Entries after “also recorded” stand apart in the source; their conditions may differ.
# How the values were obtained:
# [1] = test system: ITGB4, PXN, USP1, VDAC1, CD133 in patient-derived organoids; assay: Immunoblot of treated patient-derived organoids; assay type: cell-based, human; conditions: 48 hours, printed 2.5 mM and 5 mM
# Description: West blotting: Cell lysates were prepared with 1×RIPA buffer (MilliporeSigma) and denatured in 1× reducing sample buffer at 95° C. for 5 minutes. Protein samples (15 μg) were run on 4-15% TGX gels (Bio-Rad, Hercules, Calif., USA) and transferred onto nitrocellulose membranes (Bio-Rad). Blots were blocked with 5% non-fat milk in TBS-T for 1 hour at room temperature and probed with primary antibody diluted in 2.5% BSA in TBS-T overnight at 4° C. After three washes with TBS-T, blots were incubated with HRP-conjugated secondary antibodies for 2 hours at room temperature. After three more washes, bands of interest were visualized via chemiluminescence using Western Bright ECL HRP substrate (Advansta, Menlo Park, Calif., USA) and imaged with the ChemiDoc MP imager (Bio-Rad).
# [2] = test system: patient-derived organoids (lung cancer); assay: Patient tumor tissue-derived organoid assay (area, caspase activity); assay type: cell-based, human
# Description: Next, drug efficacy in patient tumor tissue-derived organoids was determined. Approximately 5000 cells/sample from 2 surgical samples were seeded in an ultra-low attachment plate and incubated at 37° C. […] In one of the patient-derived organoids, cisplatin treatment alone decreased spheroid area and increased apoptosis as measured by green intensity (FIG. 11D). […] Indeed, by 72 hours carfilzomib at a concentration of 2.5 μM induced 5-fold increase in caspase activity compared to cisplatin alone but there was not much change in the spheroid area (FIGS. 11E-11F). Thus, no additive effect was apparent in this patient sample. […] The efficacy of ITGB4 antibody in disrupting organoid growth and inducing apoptosis was also tested.
# H2009 cells = assay: cells; assay type: cell-based; conditions: Homo sapiens
# Description: (§1) Cell viability assay: Cell Counting Kit-8 (CCK-8) was purchased from Dojindo Molecular Technologies (Rockville, Md., USA). Cells were seeded on a 96-well plate and allowed to adhere in complete medium for 24 hours. Test compounds were added to 100 μl of medium at the indicated concentrations for 72 hours. Ten μl of the CCK-8 reagent were added to each well and absorbance at 450 nm was measured using a Tecan Spark 10M multimode microplate reader.
# (§2) Then a sublethal dose was used to determine the effect of these compounds on ITGB4 and PXN expression and caspase activity (FIG. 9I). […] These eleven compounds were further screened in the cisplatin-resistant cell line H2009. […] Further, carfilzomib was tested in another cisplatin-resistant cell line H1993.
# H1993 cells = assay: Carfilzomib dose response on cell proliferation, IC50 determination; assay type: cell-based, human; conditions: increasing dose
# Description: Cell proliferation and apoptosis assay. Cell proliferation assays were performed using cell lines stably transfected with NucLight Red Lentivirus (Essen Bioscience) to accurately visualize and count the nucleus of a single cell. Cells were seeded on a 96-well plate and allowed to adhere for 24 hours. Test compounds were added at indicated concentrations. Caspase-3/7 Green Apoptosis Reagent (Essen Bioscience) was also added as a green fluorescent indicator of caspase-3/7-mediated apoptotic activity. To monitor cell proliferation and apoptosis over time, the plate was placed in the IncuCyte S3 Live-Cell Analysis System (Essen BioScience) and images were acquired every 2 hours. Data analysis was generated by the IncuCyte software using a red fluorescence mask to accurately count each cell nucleus and a green fluorescence mask to measure apoptosis over time.
# as §2
# H2009 spheroids = assay: 3D spheroid assay (red fluorescence viability, caspase-3/7); assay type: cell-based, human; conditions: 300 nM, 72 hours
# Description: 3D spheroid assay. 3D spheroid experiments were performed using cell lines stably transfected with NucLight Red Lentivirus (Essen Bioscience) to visualize red fluorescence as an indicator of cell viability. Cells were seeded on a 96-well ultra-low attachment plate and allowed to form spheroids overnight. Drug treatment was added as indicated along with Cytotox Green Reagent (Essen BioScience), used as a green fluorescence indicator of cell death due to loss of cell membrane integrity. To monitor cell proliferation and apoptosis over time, the plate was placed in the IncuCyte S3 Live-Cell Analysis System (Essen BioScience) and images were acquired every 2 hours. Data analysis was generated by the IncuCyte software using a red fluorescence mask to accurately measure intensity and area of red fluorescence, indicating spheroid viability and a green fluorescence mask, indicating cell death.
# Confocal microscopy. […] Images were processed using ZEN software and analyzed using ImageJ (Schneider, C. A.; Rasband, W. S. & Eliceiri, K. W. (2012), “NIH Image to ImageJ: 25 years of image analysis”, Nature methods 9(7): 671-675, PMID 22930834).
# To mimic conditions closer to in vivo, the effect of knocking down PXN or ITGB4 was discerned in spheroids (3D) formed from the cell lines used in 2D culture. […] The spheroid growth and survival were quantitated by monitoring dye intensity and area in real time. […]
# H358 cells = assay: Cell-based rescreen of top virtual-screen hits, IC50 determination; conditions: Homo sapiens, NCI-H358, 0.1 μM to 10 μM, 72 hours
# Description: as §1
# A virtual screen of a library of 1440 FDA-approved drugs using binding pockets in the N-terminal domain of PXN (FIG. 9H) identified several putative hits. The top 40 hits were then rescreened employing a cell-based assay to determine their efficacy using H358 cells.
smiles,measurement,setting,value
CC(C)C[C@H](NC(=O)[C@H](CCc1ccccc1)NC(=O)CN1CCOCC1)C(=O)N[C@@H](Cc1ccccc1)C(=O)N[C@@H](CC(C)C)C(=O)[C@@]1(C)CO1 [Carfilzomib],protein expression by immunoblot,[1],"decrease in the expression of ITGB4, USP1, PXN and VDAC1; also recorded: decreased expression of ITGB4, PXN, USP1, VDAC1 and CD133"
same,spheroid area,[2]; patient LCSC2,decreased the spheroid area
same,"caspase activity, combination with cisplatin","[2]; patient LCSC2, both drugs combined",enhanced
same,"apoptosis, combination with cisplatin","[2]; patient LCSC4, carfilzomib and cisplatin combined",did not have an additive effect
same,organoid size,"[2]; patient LCSC4, cisplatin 5 μM alone, carfilzomib 2.5 μM alone",decreased the size of the organoid
same,induction of apoptosis (caspase activity) compared to cisplatin alone,"[2]; patient LCSC4 organoids, 2.5 μM, by 72 hours",5 fold
same,increase in apoptosis (caspase activity),[2]; second patient (LCSC2) organoids,~50 fold
same,cytotoxicity at 0.08 µM,"H2009 cells; NCI-H2009, 72 h, read-out: reduction in the cell viability",80%
same,IC50,"H2009 cells; NCI-H2009, H2009 cells, increasing dose, 72 hours",418 nM
same,IC50,H1993 cells; H1993 cells,1770 nM
same,IC50,"H1993 cells; Homo sapiens, NCI-H1993, H1993 cells",1700 nM
same,drop in red intensity of spheroid,H2009 spheroids,2 fold
same,increase in caspase activity,H2009 spheroids,2 fold
same,IC50,H358 cells,0.8 nM
